Measured values as given in patent US4882171A, “Vanadium-peroxide compositions as insulin mimickers” (priority 1986, dated 1989).

Experiments:
[1] = system: adipocytes (protein synthesis); assay: Protein synthesis in adipocytes, 3H-leucine incorporation (Example 5, Table 2); type: cell-based
Method: Adipocytes were isolated by collagenase digestion and protein synthesis was assessed by the incorporation 3,4,5-^3 H-leucine (0.5 uCi/ml) over 1 h at 37° C. into trichloroacetic acid (10%) precipitable material.
This was followed by a 1 h incubation with radiolabelled leucine. The reaction was terminated by the addition of cold TCA and centrifugation. The pellet was counted in a beta counter.

[2] = system: 125I-IGF-2 binding, rat adipocytes; assay: IGF-2 binding to rat adipocytes (Example 1, Table 1); type: cell-based; details: insulin 10 ng/ml, vanadate 1 mM and/or H2O2 1 mM, 15 min preincubation at 37° C.; control = 125I-IGF-2 alone
[3] = system: insulin receptor tyrosine kinase; assay: Insulin receptor tyrosine kinase activation in adipocytes, 32P incorporation into poly (Glu, Tyr) (Example 3, FIG. 3); type: cell-based, rat
[4] = system: diabetic rats; details: drinking water; cited from earlier work
[5] = system: rat adipocytes (lipogenesis); assay: Lipogenesis in rat adipocytes (Example 4); type: cell-based; details: 10^-7 M vanadate with H2O2 10^-3 M equals vanadate alone at 10^-4 M
[6] = system: rat adipocytes (lipolysis); assay: Lipolysis in rat adipocytes (Example 4); type: cell-based; details: vanadate with H2O2 10^-3 M, or vanadate alone
[7] = system: 125I-IGF-2 cell surface binding, fat cell; details: vanadate alone; cited from earlier work
[8] = Blood sugar in intact rats after jugular vein injection (Example 6B); type: in vivo, rat (male Sprague-Dawley); details: 0.5 ml of 2 mM vanadate
Method: Solutions were injected into the jugular vein and blood samples were removed for determination of blood sugar by a standard glucose oxidase procedure.

[9] = system: 125I-IGF-II binding, rat adipocytes; assay: Binding of labelled IGF-II to rat adipocytes, vanadate dose response (Example 2, FIG. 2); type: cell-based; details: vanadate alone; % of that seen with maximal doses of insulin
Method: Determination of ^125 I-IGF-II binding (shown in FIG. 2) is achieved by incubating adipocytes with vanadate (white circles on Figure); hydrogen peroxide (1mM) plus vanadate (black circles); and insulin (black squares) for 15 minutes at 37 C. Each value shown is the mean ± S.E. (Standard Error) of three separate experiments.

[10] = Blood glucose in live rats after jugular vein injection (Example 6A); type: in vivo, rat; details: 0.2 to 0.4 ml of 1 mM solution, 200 g rats
Method: In live rat studies vanadate (sodium salt) and the reaction mixture (phosphate-buffered saline containing vanadate and H2 O2 at neutral pH) was injected into 200 g rats via the internal jugular vein. […] This decrease was short-lived.

Compound | activity at 100 µM ([1]; Adipocyte, 100 uM (H2O2 concentration), 2 h at 37° C., then 1 h radiolabelled leucine, n=4-5, read-out: Leucine Incorp (% of control ± S.E.)) | IGF-2 binding, % of control [2] | augmentation of kinase activity over control ([3]; 10^-3 M alone) | effect on blood glucose (in words) [4] | effect on cardiac performance (in words) [4] | vanadate concentration giving equal augmentation of lipogenesis [5] | Leucine Incorp (% of control ± S.E.) ([1]; 2 uM, 2 h at 37° C., then 1 h radiolabelled leucine, n=2) | Leucine Incorp (% of control ± S.E.) ([1]; 10 uM, 2 h at 37° C., then 1 h radiolabelled leucine, n=6) | Leucine Incorp (% of control ± S.E.) ([1]; 50 uM, 2 h at 37° C., then 1 h radiolabelled leucine, n=5) | Leucine Incorp (% of control ± S.E.) ([1]; 100 uM (H2O2 concentration), 2 h at 37° C., then 1 h radiolabelled leucine, n=4-5) | stimulation of leucine incorporation (in words) ([1]; vanadate alone, 2-100 uM) | vanadate concentration inhibiting lipolysis maximally [6] | insulin mimicking action (in words) [7] | effect in lowering blood sugar (in words) [8] | maximal effect relative to maximal doses of insulin (IGF-II binding) [9] | effect on blood glucose (in words) [10] | augmentation of kinase activity over control ([3]; insulin 10 ng/ml alone)
OO [H2 O2, hydrogen peroxide] | 105 ± 4.7% | 138 ± 12 % of control |  |  |  |  |  |  |  |  |  |  |  |  |  |  | 
[O]=[V]([O-])([O-])[O-] [Vanadate, vanadate] |  | 172 ± 10 % of control | 32% | lower blood glucose | improve cardiac performance | 10^-4 M | 101 ± 5.0 % of control | 104 ± 3.5 % of control | 105 ± 6.0 % of control | 107 ± 8.0 % of control | does not significantly stimulate leucine incorporation | 10^-3 M | weak mimicker of insulin action | no effect at all | about 60% | no effect | 
Insulin: insulin |  |  |  |  |  |  |  |  |  |  |  |  |  |  |  |  | 349%
